# Read-outs that look alike come from different tables or passages of the source.
# How the values were obtained:
# [1] = tested on: MHC-I surface expression in uninfected SupT1 cells; experiment: Increase of MHC-I surface expression in uninfected SupT1 cells (mean-MHC-I EC50, FIG. 6A); format: cell-based; conditions: Homo sapiens, SUP-T1, 24 h with compound, read-out: EC50 for MHC-I increased surface expression
# Experimental: In some instances, the effect of small molecules in modulation of surface MHC-I was monitored in uninfected (rather than HIV-infected) Sup-T1 cells (FIG. 6A). In these experiments uninfected SupT1 cells were incubated with the compounds for 24 h and then the increase in MHC-I surface expression was monitored by staining cells with the biotinylated HLA-A2/28 antibody (One Lambda, clone BIH0037), washed and then incubated with streptavidin conjugated with APC (Streptavidin APC, EBiosciences, 17-4317) to reveal the anti-HLA-A2 bound antibody. After washing the cells again they were fixed with 0.5% paraformaldehyde and submitted to flow cytometry to determine the levels of MHC-I surface expression (APC fluorescence) in live cells (as estimated by FS/SS in these cells). […] From these assays “mean-MHC-I” EC50 values were generated to indicate the concentration of compound that augments the mean surface levels of MHC-I to 50% of the highest levels accomplished by the compound, as compared to cells treated with vehicle alone. […] Therefore, both assays: inhibition of MHC-I downmodulation in HIV infected SupT1 cells, or increase in surface MHC-I in uninfected SupT1 cells, were indistinctively used to monitor the potency of the compounds to modulate surface expression of MHC-I in SupT1 cells.
# Table 7 show the activity of selected compounds utilizing the assay in which the increase of MHC-I surface expression in uninfected SupT1 cells was evaluated, as shown in FIG. 6A. The EC50 for MHC-I increased surface expression was determined using the methods described in Example 2 and illustrated in FIG. 6A.
# in vitro = conditions: human, uninfected SupT1 cells
# [2] = tested on: downmodulation of MHC-I molecules expressed on the surface of HIV infected SupT1 cells; experiment: cells
# [3] = tested on: surface MHC-I in uninfected SupT1 cells (GFP-negative); experiment: Surface MHC-I in GFP-negative (uninfected) SupT1 cells of cultures treated with HIV-1 (FIG. 4); format: cell-based; conditions: dose-dependent
# Experimental: FIG. 4 represents the levels of expression of surface MHC-I in uninfected SupT1 cells (GFP-negative) incubated with vehicle alone (0.1% DMSO) or with compounds #40, #53, #54, #56 or #100 at different concentrations. Values are shown as the percentage of the MHC-I expression observed in cells treated with 0.1% DMSO alone. All samples were incubated with HIV-1 reporter virus (NL4.3-GFP) except those shown as ΔNef, which are shown for reference and were treated with nef-defective virus.
# To determine whether the inhibitors of MHC-I downmodulation are specific for HIV infection a study to determine whether the compounds also interfere with expression of MHC-I in uninfected cells was undertaken. The effect of the same compounds was evaluated in SupT-1 cells treated with HIV-1 as shown before, but this time the levels of expression of MHC-I were obtained in GFP-negative cells (FIG. 4). […] The increase was dose-dependent and compounds elevated MHC-I levels by as much as 70% (as compared to cells treated with vehicle alone).
# [4] = tested on: downmodulation of MHC-I molecules expressed on the surface of HIV infected SupT1 cells; conditions: for EC50: read-out: EC50 for inhibition of MHC-I downmodulation utilizing the R1 parameter, SupT1 cells infected with HIV-1, compounds added 20 h after infection, 24 h incubation
# uninfected SupT1 cells = experiment: Compound-induced toxicity, XTT cell viability assay; conditions: read-out: CC50 (concentration reducing cell viability by 50%), XTT method, 48 h, Tables 3 and 4
# [5] = Human immunodeficiency virus 1, SUP-T1, read-out: EC50 for inhibition of MHC-I downmodulation utilizing the R1 parameter
# [6] = Human immunodeficiency virus 1, SUP-T1, 24 h, read-out: EC50 for R1 (inhibition of MHC-I downmodulation)
smiles,measurement,setting,value
"CC1(C)Cc2cccc(OC(Cc3ccccc3)C(=O)Nc3nc4c(s3)CCCC4)c2O1 (racemic) [Compound 171, (±)-2-((2,2-Dimethyl-2,3-dihydrobenzofuran-7-yl)oxy)-3-phenyl-N-(4,5,6,7-tetrahydrobenzo[d]thiazol-2-yl)propanamide]",EC50,[1],6.2 µM
same,CC50,in vitro,> 125 µM
"Cc1nc(NC(=O)C(Cc2ccccc2)Oc2cccc3c2OC(C)(C)C3)ccc1C1CC1 (racemic) [Compound 172, (±)-N-(5-Cyclopropyl-6-methylpyridin-2-yl)-2-((2,2-dimethyl-2,3-dihydrobenzofuran-7-yl)oxy)-3-phenylpropanamide]",EC50,[1],8.4 µM
same,CC50,in vitro,> 125 µM
"Cc1ccc(CN(C(=O)COc2cccc3c2OC(C)(C)C3)c2nc3c(s2)CCCC3)nc1 [Compound 40, 2-((2,2-Dimethyl-2,3-dihydrobenzofuran-7-yl)oxy)-N-((5-methylpyridin-2-yl)methyl)-N-(4,5,6,7-tetrahydrobenzo[d]thiazol-2-yl)acetamide]",EC50,[2]; [5],0.008 µM
same,surface levels of MHC-I in uninfected cells,[3],increased the surface levels of MHC-I in uninfected cells
same,viability of the cell culture (estimated by FS/SS),"[4]; 100 nM compound, FIG. 2G",nor the viability of the cell culture (estimated by FS/SS) was affected
same,R4 values lower than in cells treated with DMSO only,"[4]; 100 nM compound, SupT1 cells infected with wild-type virus",approximately 10 fold
same,CC50 at 48 h,in vitro,> 100 µM
"CN(C(=O)COc1cccc2c1OC(C)(C)C2)c1nc2c(s1)CCCC2 [Compound 53, 2-((2,2-Dimethyl-2,3-dihydrobenzofuran-7-yl)oxy)-N-methyl-N-(4,5,6,7-tetrahydrobenzo[d]thiazol-2-yl)acetamide]",EC50,[1],0.012 µM
same,EC50,[2]; [5],0.003 µM
same,surface levels of MHC-I in uninfected cells,[3],increased the surface levels of MHC-I in uninfected cells
same,CC50,in vitro,> 125 µM
same,CC50 at 48 h,in vitro,> 125 µM
"CCN(C(=O)COc1cccc2c1OC(C)(C)C2)c1nc2c(s1)CCCC2 [Compound 54, 2-((2,2-Dimethyl-2,3-dihydrobenzofuran-7-yl)oxy)-N-ethyl-N-(4,5,6,7-tetrahydrobenzo[d]thiazol-2-yl)acetamide]",EC50,[1],0.009 µM
same,EC50,[2]; [5],0.008 µM
same,surface levels of MHC-I in uninfected cells,[3],increased the surface levels of MHC-I in uninfected cells
same,CC50,in vitro,> 125 µM
same,CC50 at 48 h,in vitro,> 125 µM
"C=CCN(C(=O)COc1cccc2c1OC(C)(C)C2)c1nc2c(s1)CCCC2 [Compound 56, N-Allyl-2-((2,2-dimethyl-2,3-dihydrobenzofuran-7-yl)oxy)-N-(4,5,6,7-tetrahydrobenzo[d]thiazol-2-yl)acetamide]",EC50,[1],0.006 µM
same,EC50,[2]; [6],~0.001 µM
same,EC50,[2]; [5],0.001 µM
same,surface levels of MHC-I in uninfected cells,[3],increased the surface levels of MHC-I in uninfected cells
same,CC50,in vitro,> 125 µM
same,CC50 at 48 h,in vitro,> 125 µM
"CC1(C)Cc2cccc(OCC(=O)Nc3nc4c(C#N)cccc4s3)c2O1 [Compound 100, N-(4-cyanobenzo[d]thiazol-2-yl)-2-((2,2-dimethyl-2,3-dihydrobenzofuran-7-yl)oxy)acetamide]",EC50,[2]; [6],0.07 µM
same,EC50,[2]; [5],0.07 µM
same,surface levels of MHC-I in uninfected cells,[3],increased the surface levels of MHC-I in uninfected cells
same,CC50 at 48 h,in vitro,0.1 µM
"CC1(C)Cc2cccc(CCC(=O)Nc3nc4ccccc4s3)c2O1 [Compound 108, N-(Benzo[d]thiazol-2-yl)-3-(2,2-dimethyl-2,3-dihydrobenzofuran-7-yl) propanamide]",EC50,[4],1.37 µM
same,CC50,uninfected SupT1 cells,> 100 µM
"Cc1ccccc1CCC(=O)N(C)c1nc2c(s1)CCCC2 [Compound 109, N-Methyl-N-(4,5,6,7-tetrahydrobenzo[d]thiazol-2-yl)-3-(o-tolyl) propanamide]",EC50,[4],2.1 µM
same,CC50,uninfected SupT1 cells,> 125 µM
"CC1(C)Cc2cccc(OCC(=O)N(CC(F)(F)F)c3nc4c(s3)CCCC4)c2O1 [Compound 164, 2-((2,2-Dimethyl-2,3-dihydrobenzofuran-7-yl)oxy)-N-(4,5,6,7-tetrahydrobenzo[d]thiazol-2-yl)-N-(2,2,2-trifluoroethyl)acetamide]",EC50,[1],0.026 µM
same,CC50,in vitro,> 125 µM
"O=C(COc1cccc2[nH]ccc12)N(CC(F)(F)F)c1nc2c(s1)CCCC2 [Compound 165, 2-((1H-Indol-4-yl)oxy)-N-(4,5,6,7-tetrahydrobenzo[d]thiazol-2-yl)-N-(2,2,2-trifluoroethyl)acetamide]",EC50,[1],1 µM
same,CC50,in vitro,> 125 µM
"CC1(C)Cc2cccc(OCC(=O)N(CC(F)(F)F)c3nc4c(s3)COCC4)c2O1 [Compound 166, N-(6,7-Dihydro-4H-pyrano[4,3-d]thiazol-2-yl)-2-((2,2-dimethyl-2,3-dihydrobenzofuran-7-yl)oxy)-N-(2,2,2-trifluoroethyl)acetamide]",EC50,[1],0.2 µM
same,CC50,in vitro,> 125 µM
"Cc1nc(NC(=O)COc2cccc3c2OC(C)(C)C3)ccc1C1CC1 [Compound 167, N-(5-Cyclopropyl-6-methylpyridin-2-yl)-2-((2,2-dimethyl-2,3-dihydrobenzofuran-7-yl)oxy)acetamide]",EC50,[1],0.47 µM
same,CC50,in vitro,> 125 µM
"Cc1nc(NC(=O)COc2cccc3c2OC(C)(C)C3)ccc1C#N [Compound 168, N-(5-Cyano-6-methylpyridin-2-yl)-2-((2,2-dimethyl-2,3-dihydrobenzofuran-7-yl)oxy)acetamide]",EC50,[1],> 25 µM
same,CC50,in vitro,> 125 µM
"Cc1cc(C)nc(NC(=O)COc2cccc3c2OC(C)(C)C3)c1 [Compound 169, 2-((2,2-Dimethyl-2,3-dihydrobenzofuran-7-yl)oxy)-N-(4,6-dimethylpyridin-2-yl)acetamide]",EC50,[1],> 25 µM
same,CC50,in vitro,> 125 µM
"Cc1cccnc1CN(C(=O)COc1cccc2c1OC(C)(C)C2)c1ccc(C2CC2)c(C)n1 [Compound 170, N-(5-Cyclopropyl-6-methylpyridin-2-yl)-2-((2,2-dimethyl-2,3-dihydrobenzofuran-7-yl)oxy)-N-((3-methylpyridin-2-yl)methyl)acetamide]",EC50,[1],1 µM
same,CC50,in vitro,> 125 µM
"CC1(C)Cc2cc(C(F)(F)F)cc(OCC(=O)Nc3nc4c(s3)CCCC4)c2O1 [Compound 173, 2-((2,2-Dimethyl-5-(trifluoromethyl)-2,3-dihydrobenzofuran-7-yl)oxy)-N-(4,5,6,7-tetrahydrobenzo[d]thiazol-2-yl)acetamide]",EC50,[1],2.5 µM
same,CC50,in vitro,> 125 µM
"Cc1nc(NC(=O)COc2cc(C(F)(F)F)cc3c2OC(C)(C)C3)ccc1C1CC1 [Compound 174, N-(5-Cyclopropyl-6-methylpyridin-2-yl)-2-((2,2-dimethyl-5-(trifluoromethyl)-2,3-dihydrobenzofuran-7-yl)oxy)acetamide]",EC50,[1],2.5 µM
same,CC50,in vitro,> 125 µM

# From patent US20220411419A1, “SMALL MOLECULE MODULATORS OF MHC-I” (RetroVirox, Inc., priority 2018, published 2022)
